Assay results: ChEMBL document CHEMBL4118212, “Structure-activity relationship of uridine-based nucleoside phosphoramidate prodrugs for inhibition of dengue virus RNA-dependent RNA polymerase” (Bioorg Med Chem Lett, 2018)

How the values were obtained:
Nonstructural protein 5 = Nonstructural protein 5 (Dengue virus, UniProt V5TFZ2); assay: Inhibition of Dengue virus RdRp activity using 5'-(TCAG)20(TCCAAG)14(TCAG)20-3' as template measured after 120 mins
[1] = target: POLRMT (DNA-directed RNA polymerase, mitochondrial) (Homo sapiens, UniProt O00411); assay: Inhibition of human POLRMT using 5'-FAM labelled RNA primer/DNA template duplex assessed as single nucleotide incorporation rate at 500 uM after 5 mins by SDS-PAGE analysis relative to control; parameters: scale not given: the % may be the effect or the level left; details: probe 5'-FAM labelled RNA primer/DNA template duplex, read-out: Activity
Sequence of POLRMT (DNA-directed RNA polymerase, mitochondrial) (O00411 whole entry): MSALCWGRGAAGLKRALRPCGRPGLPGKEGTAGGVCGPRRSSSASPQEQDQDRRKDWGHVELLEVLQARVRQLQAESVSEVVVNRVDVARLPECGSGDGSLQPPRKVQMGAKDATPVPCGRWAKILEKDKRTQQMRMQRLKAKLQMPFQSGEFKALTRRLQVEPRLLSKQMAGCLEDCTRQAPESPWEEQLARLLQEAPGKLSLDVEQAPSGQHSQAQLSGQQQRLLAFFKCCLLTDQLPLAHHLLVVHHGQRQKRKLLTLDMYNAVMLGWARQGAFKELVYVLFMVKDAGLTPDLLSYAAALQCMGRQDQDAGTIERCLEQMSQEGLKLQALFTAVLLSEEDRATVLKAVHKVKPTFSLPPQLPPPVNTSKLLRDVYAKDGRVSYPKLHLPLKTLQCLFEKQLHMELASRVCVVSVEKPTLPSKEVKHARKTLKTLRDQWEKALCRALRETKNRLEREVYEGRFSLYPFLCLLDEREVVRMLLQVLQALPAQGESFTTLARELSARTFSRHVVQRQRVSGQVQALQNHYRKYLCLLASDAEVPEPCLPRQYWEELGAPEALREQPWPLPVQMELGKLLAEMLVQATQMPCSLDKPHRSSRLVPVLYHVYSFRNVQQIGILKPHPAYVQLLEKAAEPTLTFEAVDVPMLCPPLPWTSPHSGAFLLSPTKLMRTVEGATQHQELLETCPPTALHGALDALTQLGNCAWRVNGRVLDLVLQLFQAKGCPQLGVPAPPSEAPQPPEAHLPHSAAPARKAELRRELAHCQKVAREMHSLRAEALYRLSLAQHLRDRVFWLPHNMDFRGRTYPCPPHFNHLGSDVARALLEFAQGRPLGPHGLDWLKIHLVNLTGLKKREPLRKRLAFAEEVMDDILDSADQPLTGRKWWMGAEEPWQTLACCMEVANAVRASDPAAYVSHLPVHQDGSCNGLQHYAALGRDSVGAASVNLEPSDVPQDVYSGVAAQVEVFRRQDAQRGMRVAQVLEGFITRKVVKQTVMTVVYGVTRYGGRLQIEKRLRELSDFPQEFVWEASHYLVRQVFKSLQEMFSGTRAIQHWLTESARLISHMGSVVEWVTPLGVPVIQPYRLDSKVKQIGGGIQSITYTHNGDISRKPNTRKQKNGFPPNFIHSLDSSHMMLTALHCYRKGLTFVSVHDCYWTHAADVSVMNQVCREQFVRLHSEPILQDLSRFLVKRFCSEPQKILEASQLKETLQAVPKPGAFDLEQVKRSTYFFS

[2] = Inhibition of recombinant human mitochondrial DNA polymerase gamma expressed in Escherichia coli BL21(DE3) cells assessed as single nucleotide incorporation rate at 100 uM relative to NTP; parameters: scale not given: the % may be the effect or the level left
dengue virus type 2 [3] = assay: Antiviral activity against Dengue virus 2 infected in human PBMC after 2 days post infection by plaque assay; assay type: functional, organism-based; details: 48 h
[4] = Cytotoxicity against human HepG2 cells after 96 hrs by CCK-8 assay; assay type: cell-based
dengue virus type 2 [5] = assay: Antiviral activity against Dengue virus 2 infected in human HuH7 cells by replicon assay; assay type: functional, organism-based; details: Huh-7
dengue virus type 2 [6] = assay: Antiviral activity against Dengue virus 2 infected in human PBMC after 24 hrs post infection by plaque assay; assay type: functional, organism-based
[7] = target: DNA-directed RNA polymerase, mitochondrial (Homo sapiens, UniProt O00411); assay: Inhibition of human full length POLRMT using 32P-RNA primer/DNA template assessed as single nucleotide incorporation rate at 500 uM by SDS-PAGE analysis relative to CTP; parameters: scale not given: the % may be the effect or the level left
Sequence of DNA-directed RNA polymerase, mitochondrial (O00411 whole entry): as above

[8] = Cytotoxicity against human K562 cells; assay type: cell-based
[9] = Mitochondrial toxicity in human PC3 cells assessed as effect on mitochondrial protein synthesis measured after 5 days by ELISA; assay type: cell-based, PC-3
[10] = Cytotoxicity against human MT4 cells; assay type: cell-based

Sequence of Nonstructural protein 5 (V5TFZ2 whole entry): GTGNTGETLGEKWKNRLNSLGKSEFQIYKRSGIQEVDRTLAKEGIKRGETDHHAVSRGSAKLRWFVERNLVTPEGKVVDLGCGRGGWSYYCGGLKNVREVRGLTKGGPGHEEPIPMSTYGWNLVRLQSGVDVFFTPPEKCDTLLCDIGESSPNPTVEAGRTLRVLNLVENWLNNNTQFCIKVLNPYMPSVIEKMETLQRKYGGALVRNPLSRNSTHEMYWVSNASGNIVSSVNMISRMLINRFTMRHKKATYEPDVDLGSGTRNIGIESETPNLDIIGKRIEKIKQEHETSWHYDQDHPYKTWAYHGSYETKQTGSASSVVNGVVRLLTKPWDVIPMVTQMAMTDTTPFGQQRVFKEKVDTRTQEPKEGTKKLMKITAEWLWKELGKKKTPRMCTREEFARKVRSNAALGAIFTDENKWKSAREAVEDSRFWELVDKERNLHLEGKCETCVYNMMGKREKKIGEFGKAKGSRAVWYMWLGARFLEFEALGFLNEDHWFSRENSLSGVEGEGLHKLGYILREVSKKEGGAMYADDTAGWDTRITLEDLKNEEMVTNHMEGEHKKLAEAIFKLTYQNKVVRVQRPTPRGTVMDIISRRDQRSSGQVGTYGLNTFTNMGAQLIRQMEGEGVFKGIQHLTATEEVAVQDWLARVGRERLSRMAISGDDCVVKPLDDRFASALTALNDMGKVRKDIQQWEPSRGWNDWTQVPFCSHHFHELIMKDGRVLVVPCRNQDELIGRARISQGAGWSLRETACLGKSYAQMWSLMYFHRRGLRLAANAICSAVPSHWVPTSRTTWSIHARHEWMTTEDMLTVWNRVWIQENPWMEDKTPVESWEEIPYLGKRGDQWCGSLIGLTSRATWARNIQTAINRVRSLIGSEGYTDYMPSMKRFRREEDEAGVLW

C[C@]1(O)[C@H](n2ccc(=O)[nH]c2=O)O[C@](F)(COP(=O)(O)OP(=O)(O)OP(=O)(O)O)[C@H]1O [ADAFOSBUVIR 5'-TRIPHOSPHATE]
IC50 (Nonstructural protein 5): 6.6 µM | activity at 5 min, 500 µM [1]: 5.7%

C#C[C@]1(O)[C@H](n2ccc(=O)[nH]c2=O)O[C@](F)(COP(=O)(O)OP(=O)(O)OP(=O)(O)O)[C@H]1O
IC50 (Nonstructural protein 5): 0.65 µM | activity at 5 min, 500 µM [1]: 3% | Activity [2]: 0%

CC#C[C@@]1(O)[C@H](O)[C@@H](CO[P@@](=O)(N[C@@H](C)C(=O)OC(C)C)Oc2ccccc2)O[C@H]1n1ccc(=O)[nH]c1=O
EC50 (dengue virus type 2 [3]): 1.9 µM | CC50 at 96 h [4]: > 50 µM

CC#C[C@@]1(F)[C@H](O)[C@@H](CO[P@@](=O)(N[C@@H](C)C(=O)OC(C)C)Oc2ccccc2)O[C@H]1n1ccc(=O)[nH]c1=O
CC50 at 96 h [4]: > 50 µM | EC50 (dengue virus type 2 [5]): > 100 µM

C#C[C@@]1(O)[C@H](O)[C@@H](CO[P@@](=O)(N[C@@H](C)C(=O)OC(C)C)Oc2ccccc2)O[C@H]1n1ccc(=O)[nH]c1=O
EC50 (dengue virus type 2 [3]): 0.45 µM | CC50 at 96 h [4]: > 50 µM

C[C@@]1(F)[C@H](O)[C@@H](COP(=O)(O)OP(=O)(O)OP(=O)(O)O)O[C@H]1n1ccc(=O)[nH]c1=O [GS-461203]
IC50 (Nonstructural protein 5): 18 µM | activity at 5 min, 500 µM [1]: 1.8%

CC(C)OC(=O)[C@H](C)N[P@](=O)(OC[C@H]1O[C@@H](n2ccc(=O)[nH]c2=O)[C@](C)(F)[C@@H]1O)Oc1ccccc1 [SOFOSBUVIR]
EC50 (dengue virus type 2 [3]): 1.2 µM | CC50 at 96 h [4]: > 50 µM

CC#C[C@]1(O)[C@H](n2ccc(=O)[nH]c2=O)O[C@](F)(COP(=O)(O)OP(=O)(O)OP(=O)(O)O)[C@H]1O
IC50 (Nonstructural protein 5): 2.8 µM | activity at 5 min, 500 µM [1]: 1.7%

CC#C[C@]1(O)[C@H](n2ccc(=O)[nH]c2=O)O[C@](F)(CO[P@@](=O)(N[C@@H](C)C(=O)OC(C)C)Oc2ccccc2)[C@H]1O
EC50 (dengue virus type 2 [3]): 9 µM | CC50 at 96 h [4]: > 50 µM

[N-]=[N+]=N[C@]1(CO)O[C@@H](n2ccc(N)nc2=O)[C@H](O)[C@@H]1O [4'-AZIDOCYTIDINE]
EC50 (dengue virus type 2 [6]): 0.25 µM | Activity [7]: 91%

C#C[C@@]1(F)[C@H](O)[C@@H](COP(=O)(O)OP(=O)(O)OP(=O)(O)O)O[C@H]1n1ccc(=O)[nH]c1=O
IC50 (Nonstructural protein 5): 15.9 µM | activity at 5 min, 500 µM [1]: 2%

CC#C[C@@]1(O)[C@H](O)[C@@H](COP(=O)(O)OP(=O)(O)OP(=O)(O)O)O[C@H]1n1ccc(=O)[nH]c1=O
IC50 (Nonstructural protein 5): 2 µM | activity at 5 min, 500 µM [1]: 6.7%

CC(C)OC(=O)[C@H](C)NP(=O)(OC[C@H]1O[C@@H](n2ccc(=O)[nH]c2=O)[C@](C)(O)[C@@H]1O)Oc1ccccc1 (mixture of isomers)
EC50 (dengue virus type 2 [3]): 0.19 µM | CC50 at 96 h [4]: > 50 µM

C[C@@]1(O)[C@H](O)[C@@H](COP(=O)(O)OP(=O)(O)OP(=O)(O)O)O[C@H]1n1ccc(=O)[nH]c1=O
IC50 (Nonstructural protein 5): 5 µM | activity at 5 min, 500 µM [1]: 29.4%

C#C[C@@]1(F)[C@H](O)[C@@H](CO[P@@](=O)(N[C@@H](C)C(=O)OC(C)C)Oc2ccccc2)O[C@H]1n1ccc(=O)[nH]c1=O
EC50 (dengue virus type 2 [3]): > 25 µM | CC50 at 96 h [4]: > 50 µM

CC#C[C@@]1(F)[C@H](O)[C@@H](COP(=O)(O)OP(=O)(O)OP(=O)(O)O)O[C@H]1n1ccc(=O)[nH]c1=O
IC50 (Nonstructural protein 5): > 20 µM | activity at 5 min, 500 µM [1]: 2.2%

C#C[C@@]1(O)[C@H](O)[C@@H](COP(=O)(O)OP(=O)(O)OP(=O)(O)O)O[C@H]1n1ccc(=O)[nH]c1=O
IC50 (Nonstructural protein 5): 1.6 µM | activity at 5 min, 500 µM [1]: 16.8%

C#C[C@]1(O)[C@H](n2ccc(=O)[nH]c2=O)O[C@](F)(CO[P@@](=O)(N[C@@H](C)C(=O)OC(C)C)Oc2ccccc2)[C@H]1O
EC50 (dengue virus type 2 [3]): 0.57 µM | CC50 at 96 h [4]: > 50 µM | CC50 [8]: > 50 µM | CC50 at 120 h [9]: > 200 µM | CC50 [10]: > 50 µM

CC(C)OC(=O)[C@H](C)N[P@](=O)(OC[C@@]1(F)O[C@@H](n2ccc(=O)[nH]c2=O)[C@](C)(O)[C@@H]1O)Oc1ccccc1 [ADAFOSBUVIR]
EC50 (dengue virus type 2 [3]): 1.1 µM | CC50 at 96 h [4]: > 50 µM
